From patent publication US20240327334A1, “Covalent Inhibitors As Antiviral Agents” (Enanta Pharmaceuticals, Inc., priority 2022, published 2024)

What was measured:
[1] = system: SARS-CoV-2 replicon; test: microbe, parasite or virus in culture; format: cell-based; conditions: Severe acute respiratory syndrome coronavirus 2, Huh-7
[2] = molecular target: SARS-CoV-2 Papain-like (PLpro) protease (Severe acute respiratory syndrome coronavirus 2, UniProt P0DTD1); test: SARS-CoV-2 Papain-like (PLpro) protease biochemical enzyme inhibition assay (ubiquitin-fluorophore substrate, Ub-R110); conditions: Ub-R110 substrate; run in duplicate; read-out: PLpro IC50

Compound	EC50 [1]	IC50 [2]
Cc1cccnc1C#C[C@H](C)NC(=O)C(=O)NCc1ccccc1C(=O)NC1(c2cc(F)cc(-c3cnn(C4CC4)c3)c2)CC1 [Example 266]	< 1000 nM	< 100 nM
Cn1ccc(-c2cc(C3(NC(=O)c4ccccc4CNC(=O)C(=O)NCC#N)CC3)c3ccccc3c2)n1 [Example 290]	< 1000 nM	< 100 nM
O=C(NCC#Cc1nccs1)C(=O)NCc1ccccc1C(=O)NC1(c2cc(Cl)cc(-c3cnco3)c2)CC1 [Example 449]	< 1000 nM	< 100 nM
C[C@@H](C#Cc1nccs1)NC(=O)C(=O)NCc1ccccc1C(=O)NC1(c2cc(F)cc(-c3cnn(C4CC4)c3)c2)CC1 [Example 185]	< 1000 nM	< 100 nM
O=C(NC/C=C/C(=O)N1CCCC1)C(=O)NCc1ccccc1C(=O)NC1(c2cccc3ccccc23)CC1 [Example 557]	1000 to 10000 nM	< 100 nM
C=CC(=O)NNC(=O)C(=O)NCc1ccccc1C(=O)N[C@H](C)c1cccc2ccccc12 [Example 22]	> 10000 nM	100 to 1000 nM
COc1ccc(-c2cc(C3(NC(=O)c4ccccc4CNC(=O)C(=O)NCC#N)CC3)c3ccccc3c2)s1 [Example 351]	< 1000 nM	< 100 nM
C[C@@H](C#Cc1nccs1)NC(=O)C(=O)NCc1ccccc1C(=O)NC1(c2ccc3nn(CC(F)(F)F)cc3c2)CC1 [Example 323]	< 1000 nM	< 100 nM
CNN(C)C(=O)/C=C/CNC(=O)C(=O)NCc1ccccc1C(=O)NC1(c2cccc3ccccc23)CC1 [Example 559]	1000 to 10000 nM	100 to 1000 nM
C[C@@H](NC(=O)c1ccccc1CNC(=O)C(=O)NCC#Cc1nccs1)c1cc(F)cc(-c2cnn(C3CC3)c2)c1 [Example 491]	< 1000 nM	< 100 nM
NC(=O)C(=O)NCc1ccccc1C(=O)NC1(c2cc(-c3cnn(C4CC4)c3)cc3ccccc23)CC1 [Example 321]	1000 to 10000 nM	< 100 nM
C#CCNC(=O)C(=O)NCc1ccccc1C(=O)NC1(c2cc(-c3cnn(C4CC4)c3)cc(Cl)c2F)CC1 [Example 302]	< 1000 nM	< 100 nM
Cn1ncc2cc(C3(NC(=O)c4ccccc4CNC(=O)C(=O)NCC#Cc4nccs4)CC3)ccc21 [Example 345]	< 1000 nM	< 100 nM
N#CCNC(=O)C(=O)NCc1ccccc1C(=O)NC1(c2cc(F)cc(-c3cnn(C4CC4)c3)c2)CC1 [Example 222]	> 10000 nM	< 100 nM
N#CCNC(=O)C(=O)NCc1ccccc1C(=O)NC1(c2cc(-c3cnn(C4CC4)c3)c3ccccc3c2)CC1 [Example 307]	1000 to 10000 nM	< 100 nM
Cc1nn(C)c(C)c1-c1cc(C2(NC(=O)c3ccccc3CNC(=O)C(=O)NCC#Cc3nccs3)CC2)c2ccccc2c1 [Example 300]	< 1000 nM	< 100 nM
O=C(C#CCNC(=O)C(=O)NCc1ccccc1C(=O)NC1(c2cccc3ccccc23)CC1)N[C@H]1CC[C@H](C(F)(F)F)CC1 [Example 520]	< 1000 nM	< 100 nM
N#CCNC(=O)C(=O)NCc1ccccc1C(=O)NC1(c2cc(-c3cnn[nH]3)cc3ccccc23)CC1 [Example 425]	< 1000 nM	< 100 nM
CN(C)CCn1cc(-c2cc(F)cc(C3(NC(=O)c4ccccc4CNC(=O)C(=O)NCC#Cc4ccccn4)CC3)c2)cn1 [Example 250]	< 1000 nM	< 100 nM
CC(C)c1cccnc1C#CCNC(=O)C(=O)NCc1ccccc1C(=O)NC1(c2ccc3ccccc3c2)CC1 [Example 404]	< 1000 nM	< 100 nM
N#CCNC(=O)C(=O)NCc1ccccc1C(=O)NC1(c2cc(-c3cnn(C(F)F)c3)cc(C(F)(F)F)c2)CC1 [Example 472]	> 10000 nM	100 to 1000 nM

Compound	EC50 [1]	IC50 [2]
O=C(NCC#Cc1ccccn1)C(=O)NCc1ccccc1C(=O)NC1(c2cc(F)cc(-c3cnn(C4CC4)c3)c2)CC1 [Example 252]	< 1000 nM	< 100 nM
COCCN(C)C(=O)/C=C/CNC(=O)C(=O)NCc1ccccc1C(=O)NC1(c2cccc3ccccc23)CC1 [Example 556]	1000 to 10000 nM	100 to 1000 nM
C[C@@H](C#Cc1ccc(C#N)cc1Cl)NC(=O)C(=O)NCc1ccccc1C(=O)NC1(c2ccc3nn(C)cc3c2)CC1 [Example 107]	< 1000 nM	< 100 nM
Cc1nn(C2CC2)c(C)c1-c1cc(F)cc(C2(NC(=O)c3ccccc3CNC(=O)C(=O)NCC#Cc3nccs3)CC2)c1 [Example 139]	< 1000 nM	< 100 nM
COc1cc(C2(NC(=O)c3ccccc3CNC(=O)C(=O)N[C@@H](C)C#Cc3ccc(C#N)cc3F)CC2)cc2cn(C3CC3)nc12 [Example 334]	< 1000 nM	< 100 nM
N#Cc1cc(-c2cnn(C3CC3)c2)c(F)c(C2(NC(=O)c3ccccc3CNC(=O)C(=O)NCC#Cc3nccs3)CC2)c1 [Example 301]	< 1000 nM	< 100 nM
O=C(NCC#Cc1ncc(F)cc1F)C(=O)NCc1ccccc1C(=O)NC1(c2ccc3ccccc3c2)CC1 [Example 188]	< 1000 nM	< 100 nM
COc1cc(C2(NC(=O)c3ccccc3CNC(=O)C(=O)NCC#N)CC2)c2cccnc2c1 [Example 411]	1000 to 10000 nM	< 100 nM
COC(=O)/C=C/CNC(=O)C(=O)NCc1ccccc1C(=O)NC1(c2cccc3ccccc23)CC1 [Example 4]	< 1000 nM	< 100 nM
CCOc1cccnc1C#CCNC(=O)C(=O)NCc1ccccc1C(=O)NC1(c2ccc3ccccc3c2)CC1 [Example 200]	< 1000 nM	< 100 nM
O=C(NCC#Cc1ccc(C(F)(F)F)cc1F)C(=O)NCc1ccccc1C(=O)NC1(c2ccc3ccccc3c2)CC1 [Example 175]	1000 to 10000 nM	100 to 1000 nM
O=C(NCC#Cc1cnccn1)C(=O)NCc1ccccc1C(=O)NC1(c2ccc3ccccc3c2)CC1 [Example 172]	< 1000 nM	< 100 nM
O=C(NCC#Cc1nccs1)C(=O)NCc1ccccc1C(=O)NC1(c2cc(Cl)cc(-c3ccccc3F)c2)CC1 [Example 442]	< 1000 nM	< 100 nM
O=C(NCC#Cc1nccs1)C(=O)NCc1ccccc1C(=O)NC1(c2cc(F)cc(C(=O)N3CCOCC3)c2)CC1 [Example 138]	< 1000 nM	< 100 nM
C[C@@H](C#Cc1nccs1)NC(=O)C(=O)NCc1ccccc1C(=O)NC1(c2cc(Cl)c3nn(C4CC4)cc3c2)CC1 [Example 335]	< 1000 nM	< 100 nM
C[C@@H](C#Cc1ccc(C#N)cc1OC(F)(F)F)NC(=O)C(=O)NCc1ccccc1C(=O)NC1(c2ccc3nn(C)cc3c2)CC1 [Example 206]	< 1000 nM	< 100 nM
C[C@H](NC(=O)c1ccccc1CNC(=O)C(=O)NCC#N)c1cc(C(F)(F)F)nc2ccccc12 [Example 327]	1000 to 10000 nM	< 100 nM
O=C(/C=C/CNC(=O)C(=O)NCc1ccccc1C(=O)NC1(c2cccc3ccccc23)CC1)Nc1ccccn1 [Example 569]	< 1000 nM	100 to 1000 nM
C#CCNC(=O)C(=O)NCc1ccccc1C(=O)NC1(c2cc(-c3cccs3)cc(Cl)c2F)CC1 [Example 303]	< 1000 nM	< 100 nM
COC(=O)/C=C/CNC(=O)C(=O)NCc1cccc(F)c1C(=O)N[C@H](C)c1cccc2ccccc12 [Example 28]	< 1000 nM	< 100 nM
O=C(NC/C=C/C(=O)N1CC[C@H](O)C1)C(=O)NCc1ccccc1C(=O)NC1(c2cccc3ccccc23)CC1 [Example 555]	1000 to 10000 nM	100 to 1000 nM
